{"source": "patent US4313946A", "about": "“Chemotherapeutically active maytansinoids from Trewia nudiflora” (priority 1981, dated 1982)", "key": {"[1]": {"test_system": "cultivated cells of human epidermoid carcinoma of the mouth (KB)", "assay": "KB Cell Culture Screen (NCI Protocol 1.600)", "format": "cell-based", "conditions": "for IC50: Homo sapiens, KB, 72 h, 3 days after drug addition, activity indicated for ED50 ≤30 μg./ml., read-out: ED50 (dose that inhibits growth to 50% of control growth)", "procedure": "The KB Cell Culture Screen used in guiding the above-described fractionations was conducted in accordance with the National Cancer Institute (NCI) Protocol 1.600 [Geran et al., Cancer Chemother. Rep., Part 3, 3:17 (1972)] in which the effectiveness of the test compounds against cultivated cells of human epidermoid carcinoma of the mouth was evaluated. The results of this procedure are expressed as the dose that inhibits growth to 50% of control growth by 3 days after drug addition. Such a dose is referred to as ED50 and activity is indicated for ED50 levels of ≤30 μg./ml. The smaller the ED50 level, the more cytotoxic the test material. The activities of the crystallized compounds isolated above are reported below in Table III."}, "[2]": {"test_system": "lymphocytic leukemia P388", "assay": "PS system against lymphocytic leukemia P388 in mice (NCI Protocol 1.200)", "format": "in vivo", "conditions": "i.p. once a day for 9 days", "procedure": "Another indication of fraction activity is the effectiveness in the PS system against lymphocytic leukemia P388 in mice. These assays are conducted according to the NCI Protocol 1.200 described in Geran et al., supra. Starting 24 hours after the tumor implantation, previously determined doses of each compound were injected intraperitoneally once a day for 9 days. Survival time of treated leukemic mice is compared to that of untreated mice (T/C×100). A T/C value of 100% indicates no activity. A T/C value greater than 100% means that the treated mice are surviving longer than the control mice. A compound giving a T/C value greater than 125% is indicative of activity as defined by the NCI Protocols, above."}, "B16 melancarcinoma": {"test_system": "B16 melancarcinoma", "assay": "B1 system against B16 melancarcinoma in mice (NCI Protocol 1.300)", "format": "in vivo", "conditions": "i.p. once a day for 9 days, vehicle Klucel, male B6C3F1 mice", "procedure": "Trewiasine was also evaluated in the B1 system against B16 melancarcinoma in mice. This assay is conducted in accordance with the NCI Protocol 1.300 described in Geran et al., supra. Starting 24 hours after the tumor implantation, predetermined doses of the compound were injected intraperitoneally once a day for 9 days. The results are reported in Table V below as the percent T/C."}, "[3]": {"test_system": "lymphocytic leukemia P388", "conditions": "Wani et al. 1973; cited from earlier work"}}, "note": "“Also recorded” adds a separate entry of the source."}
{"smiles": "COc1cc2cc(c1Cl)N(C)C(=O)CC(OC(=O)C(C)NC(=O)C(C)C)C1(C)OC1C(C)C1CC(O)(NC(=O)O1)C(OC)C=CC=C(C)C2OC", "note": "(stereo not drawn) [demethyltrewiasine]", "values": [{"measurement": "IC50", "setting": "[1]", "result": "< 10", "unit": "ng/mL"}]}
{"smiles": "COc1cc2cc(c1Cl)N(C)C(=O)CC(OC(=O)C(C)N(C)C(=O)C(C)C)C1(C)OC1C(C)C1CC(O)(NC(=O)O1)C(OC)C=CC=C(C)C2OC", "note": "(stereo not drawn) [trewiasine, 15-methoxymaytanbutine]", "values": [{"measurement": "IC50", "setting": "[1]", "result": 0.2, "unit": "ng/mL"}, {"measurement": "cytotoxicity relative to that reported by Kupchan for other maytansinoids", "setting": "[1]; KB system, compared with maytansine, maytanbutine and similar compounds", "result": "one or more orders of magnitude less; also recorded: at least one order of magnitude less"}, {"measurement": "T/C", "setting": "[2]; 4.00 μg./kg./inj., vehicle Klucel, female CDF1 mice", "result": 163, "unit": "%"}, {"measurement": "T/C", "setting": "[2]; 8.00 μg./kg./inj., vehicle Klucel, female CDF1 mice", "result": 140, "unit": "%"}, {"measurement": "T/C", "setting": "[2]; 16.00 μg./kg./inj., vehicle Klucel, female CDF1 mice", "result": 154, "unit": "%"}, {"measurement": "T/C", "setting": "[2]; 32.00 μg./kg./inj., vehicle Klucel, female CDF1 mice", "result": 128, "unit": "%"}, {"measurement": "T/C", "setting": "[2]; 64.00 μg./kg./inj., vehicle Klucel, female CDF1 mice", "result": 91, "unit": "%"}, {"measurement": "T/C", "setting": "B16 melancarcinoma; 1.00 μg./kg./inj.", "result": 133, "unit": "%"}, {"measurement": "T/C", "setting": "B16 melancarcinoma; 2.00 μg./kg./inj.", "result": 140, "unit": "%"}, {"measurement": "T/C", "setting": "B16 melancarcinoma; 4.00 μg./kg./inj.", "result": 157, "unit": "%"}, {"measurement": "T/C", "setting": "B16 melancarcinoma; 8.00 μg./kg./inj.", "result": 185, "unit": "%"}, {"measurement": "T/C", "setting": "B16 melancarcinoma; 16.00 μg./kg./inj.", "result": 172, "unit": "%"}, {"measurement": "T/C", "setting": "B16 melancarcinoma; 32.00 μg./kg./inj.", "result": 183, "unit": "%"}]}
{"smiles": "COc1cc2cc(c1Cl)N(C)C(=O)CC(OC(=O)C(C)N(C)C(=O)C(C)C)C1(C)OC1C(C)C1CC(O)(NC(=O)O1)C(OC)C=CC=C(C)C2O", "note": "(stereo not drawn) [colubrinol]", "values": [{"measurement": "activity against lymphocytic leukemia P388", "setting": "[3]", "result": "activity against lymphocytic leukemia P388 at the microgram per kilogram level"}]}
{"smiles": "COc1cc2cc(c1Cl)N(C)C(=O)CC(OC(=O)C(C)N(C)C(=O)C(C)C)C1(C)OC1C(C)C1CC(O)(NC(=O)O1)C(OC)C=CC=C(C)C2OC(C)=O", "note": "(stereo not drawn) [colubrinol acetate]", "values": [{"measurement": "activity against lymphocytic leukemia P388", "setting": "[3]", "result": "activity against lymphocytic leukemia P388 at the microgram per kilogram level"}]}
{"smiles": "C=C(C)C(=O)N(C)C(C)C(=O)OC1CC(=O)N(C)c2cc(cc(OC)c2Cl)C(OC)C(C)=CC=CC(OC)C2(O)CC(OC(=O)N2)C(C)C2OC12C", "note": "(stereo not drawn) [dehydrotrewiasine]", "values": [{"measurement": "IC50", "setting": "[1]", "result": "< 10", "unit": "ng/mL"}, {"measurement": "T/C", "setting": "[2]; 4.00 μg./kg./inj., vehicle biological saline, male CDF1 mice", "result": 120, "unit": "%"}, {"measurement": "T/C", "setting": "[2]; 8.00 μg./kg./inj., vehicle biological saline, male CDF1 mice", "result": 127, "unit": "%"}, {"measurement": "T/C", "setting": "[2]; 16.00 μg./kg./inj., vehicle biological saline, male CDF1 mice", "result": 120, "unit": "%"}, {"measurement": "T/C", "setting": "[2]; 32.00 μg./kg./inj., vehicle biological saline, male CDF1 mice", "result": 145, "unit": "%"}]}
